Assay results reported in patent US8455475B2 (Gruenenthal GmbH, priority 2009, dated 2013).

Tests used:
[1] = molecular target: T1, rat B1R (bradykinin receptor 1) (Rattus norvegicus, UniProt P97583); experiment: FLIPR Ca2+ assay (Fluo-4) on CHO K1 cells stably transfected with the B1R gene of the rat (rB1R cells): % inhibition at 10 μM / IC50, agonist Des-Arg9-bradykinin; format: cell-based; conditions: CHO-K1, rat B1R
T1 construct: expressed in transfected cells; host or cells: CHO K1 cells
T1 sequence (P97583 1-337): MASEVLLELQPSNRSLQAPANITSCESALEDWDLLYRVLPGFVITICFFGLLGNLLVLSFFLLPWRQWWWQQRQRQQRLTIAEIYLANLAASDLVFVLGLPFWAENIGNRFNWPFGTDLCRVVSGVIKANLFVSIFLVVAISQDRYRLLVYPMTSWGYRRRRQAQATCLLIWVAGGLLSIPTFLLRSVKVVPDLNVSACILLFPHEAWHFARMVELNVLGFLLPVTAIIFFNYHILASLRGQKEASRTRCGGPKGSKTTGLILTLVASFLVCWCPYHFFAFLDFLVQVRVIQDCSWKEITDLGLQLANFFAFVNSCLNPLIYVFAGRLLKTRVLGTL
Method in brief: (§1)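 Stably transfected CHO K1 cells loaded with Fluo-4 and read on FLIPR (λex 488, λem 540 nm; peak fluorescence). Test substance (10 μM) added first, then after 10–20 min the agonist at EC80; % inhibition versus maximum achievable inhibition. IC50 from several concentrations, n=2–3, N≥2.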

[2] = molecular target: T2, human B1R (bradykinin receptor 1) (Homo sapiens, UniProt P46663); experiment: FLIPR Ca2+ assay (Fluo-4) on CHO K1 cells stably transfected with the human B1R gene (hB1R cells): % inhibition at 10 μM / IC50, agonist Lys-Des-Arg9-bradykinin; format: cell-based; conditions: CHO-K1, human B1R
T2 construct: expressed in transfected cells; host or cells: CHO K1 cells
T2 sequence (P46663 1-353): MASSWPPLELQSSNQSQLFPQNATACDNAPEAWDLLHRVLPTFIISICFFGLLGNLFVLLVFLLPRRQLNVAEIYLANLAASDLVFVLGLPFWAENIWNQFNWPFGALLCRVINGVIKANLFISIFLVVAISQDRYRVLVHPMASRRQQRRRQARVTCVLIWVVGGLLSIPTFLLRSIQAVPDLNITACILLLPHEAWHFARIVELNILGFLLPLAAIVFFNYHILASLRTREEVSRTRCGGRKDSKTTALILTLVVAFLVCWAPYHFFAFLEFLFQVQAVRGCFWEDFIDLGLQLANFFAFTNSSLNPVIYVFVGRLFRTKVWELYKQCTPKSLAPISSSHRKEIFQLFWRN
Method in brief: as §1

Row | SMILES | inhibition at 10 µM [1] [%] | inhibition at 10 µM [2] [%]
1 | CN(C(=O)c1cccc(Cl)c1Cl)C1CCc2ccc(C(=O)N3CCC4(CC3)CCN(c3ccncc3)CC4)cc21 (stereo not shown) [IND_CC-265, 2,3-Dichloro-N-methyl-N-[6-(9-pyridin-4-yl-3,9-diazaspiro[5.5]undecane-3-carbonyl)-2,3-dihydro-1H-inden-1-yl]-benzamide] | 107 | 88
2 | O=C(NC1CCc2ccc(C(=O)N3CCC4(CC3)CCN(c3ccncc3)C4)cc21)c1cc(Cl)ccc1C(F)(F)F (stereo not shown) [IND_CC-303, 5-Chloro-N-[6-(2-pyridin-4-yl-2,8-diazaspiro[4.5]decane-8-carbonyl)-2,3-dihydro-1H-inden-1-yl]-2-(trifluoromethyl)-benzamide] | 106 | 92
3 | CC1(C)Cc2ccc(C(=O)N3CCC4(CC3)CCN(c3ccncc3)CC4)cc2C1NC(=O)c1cc(F)c(F)cc1Cl (stereo not shown) [IND_CC-231, 2-Chloro-N-[2,2-dimethyl-6-(9-pyridin-4-yl-3,9-diazaspiro[5.5]undecane-3-carbonyl)-1,3-dihydro-inden-1-yl]-4,5-difluoro-benzamide] | 102 | 100
4 | O=C(NC1CCc2ccc(C(=O)N3CCC4(CCN(C(=O)C5CC5)CC4)C3)cc21)c1ccccc1Cl (stereo not shown) [IND_CC-573, 2-Chloro-N-[6-[8-(cyclopropanecarbonyl)-2,8-diazaspiro[4.5]decane-2-carbonyl]-2,3-dihydro-1H-inden-1-yl]-benzamide] | 100 | 43
5 | O=C(NC1CCCCc2ccc(C(=O)N3CCC4(CC3)CCN(c3ccncc3)CC4)cc21)c1ccccc1Cl (stereo not shown) [Ind_CC-120, 2-chloro-N-[3-(9-pyridin-4-yl-3,9-diazaspiro[5.5]undecane-3-carbonyl)-6,7,8,9-tetrahydro-5H-benzocyclohepten-5-yl]-benzamide] | 99 | 56
6 | CN(C(=O)c1ccccc1Cl)C1CCc2ccc(C(=O)N3CCC4(CC3)CCN(c3cccnc3)CC4)cc21 (stereo not shown) [Ind_CC-107, 2-chloro-N-methyl-N-[6-(9-pyridin-3-yl-3,9-diazaspiro[5.5]undecane-3-carbonyl)-2,3-dihydro-1H-inden-1-yl]-benzamide] | 100 | 78
7 | O=C(NC1CCc2ccc(C(=O)N3CCC4(CCN(c5ccncc5)CC4)C3)cc21)c1c(Cl)cccc1Cl (stereo not shown) [IND_CC-289, 2,6-Dichloro-N-[6-(8-pyridin-4-yl-2,8-diazaspiro[4.5]decane-2-carbonyl)-2,3-dihydro-1H-inden-1-yl]-benzamide] | 104 | 100
8 | O=C(NC1CCc2ccc(C(=O)N3CCC4(CCN(c5ccncc5)CC4)C3)cc21)c1cc(C(F)(F)F)ccc1Cl (stereo not shown) [IND_CC-251, 2-Chloro-N-[6-(8-pyridin-4-yl-2,8-diazaspiro[4.5]decane-2-carbonyl)-2,3-dihydro-1H-inden-1-yl]-5-(trifluoromethyl)-benzamide] | 99 | 100
9 | O=C(NC1CCc2ccc(C(=O)N3CCC4(CC3)CCN(c3cccnc3)CC4)cc21)c1sccc1Cl (stereo not shown) [Ind_CC-102, 3-chloro-N-[6-(9-pyridin-3-yl-3,9-diazaspiro[5.5]undecane-3-carbonyl)-2,3-dihydro-1H-inden-1-yl]-thiophene-2-carboxylic acid amide] | 100 | 87
10 | CN(C(=O)c1cc(F)ccc1Cl)C1CCc2ccc(C(=O)N3CCC4(CC3)CCN(c3ccncc3)CC4)cc21 (stereo not shown) [IND_CC-203, 2-Chloro-5-fluoro-N-methyl-N-[6-(9-pyridin-4-yl-3,9-diazaspiro[5.5]undecane-3-carbonyl)-2,3-dihydro-1H-inden-1-yl]-benzamide] | 103 | 99
11 | O=C(NC1CCc2ccc(C(=O)N3CCC4(CC3)CCN(c3ccncc3)CC4)cc21)c1cc(C(F)(F)F)ccc1Cl (stereo not shown) [IND_CC-217, 2-Chloro-N-[6-(9-pyridin-4-yl-3,9-diazaspiro[5.5]undecane-3-carbonyl)-2,3-dihydro-1H-inden-1-yl]-5-(trifluoromethyl)-benzamide] | 95 | 99
12 | O=C(NC1CCc2ccc(C(=O)N3CCC4(CCN(Cc5ccc(F)c(F)c5)CC4)C3)cc21)c1ccccc1Cl (stereo not shown) [IND_CC-542, 2-Chloro-N-[6-[8-[(3,4-difluoro-phenyl)-methyl]-2,8-diazaspiro[4.5]decane-2-carbonyl]-2,3-dihydro-1H-inden-1-yl]-benzamide] | 104 | 27
13 | O=C(NC1CCc2ccc(C(=O)N3CCC4(CC3)CCN(c3ccncc3)C4)cc21)c1ccc(Cl)cc1Cl (stereo not shown) [Ind_CC-044, 2,4-dichloro-N-[6-(2-pyridin-4-yl-2,8-diazaspiro[4.5]decane-8-carbonyl)-2,3-dihydro-1H-inden-1-yl]-benzamide] | 100 | 97
14 | O=C(NC1CCc2ccc(C(=O)N3CCC4(CCN(c5ccncc5)CC4)C3)cc21)c1cccc(C(F)(F)F)c1Cl (stereo not shown) [IND_CC-255, 2-Chloro-N-[6-(8-pyridin-4-yl-2,8-diazaspiro[4.5]decane-2-carbonyl)-2,3-dihydro-1H-inden-1-yl]-3-(trifluoromethyl)-benzamide] | 100 | 100
15 | Cc1ccc(F)c(C(=O)NC2CCc3ccc(C(=O)N4CCC5(CC4)CCN(c4ccncc4)C5)cc32)c1Cl (stereo not shown) [IND_CC-215, 2-Chloro-6-fluoro-3-methyl-N-[6-(2-pyridin-4-yl-2,8-diazaspiro[4.5]decane-8-carbonyl)-2,3-dihydro-1H-inden-1-yl]-benzamide] | 103 | 48
16 | Cc1cccc(C)c1C(=O)NC1CCc2ccc(C(=O)N3CCC4(CCN(c5ccncc5)CC4)C3)cc21 (stereo not shown) [IND_CC-310, 2,6-Dimethyl-N-[6-(8-pyridin-4-yl-2,8-diazaspiro[4.5]decane-2-carbonyl)-2,3-dihydro-1H-inden-1-yl]-benzamide] | 104 | 100

The next lines start with the values.

Row | inhibition at 10 µM [1] [%] | inhibition at 10 µM [2] [%] | SMILES
17 | 105 | 100 | O=C(N[C@@H]1CCOc2cc(F)c(C(=O)N3CCC4(CCN(c5ccncc5)CC4)C3)cc21)c1ccccc1Cl [Example H-65, 2-Chloro-N-[(4R)-7-fluoro-6-(8-pyridin-4-yl-3,8-diazaspiro[4.5]decane-3-carbonyl)-3,4-dihydro-2H-chromen-4-yl]-benzamide]
18 | 12 | 54 | O=C(c1cccc2c1CC[C@H]2N1Cc2cccc(Cl)c2C1=O)N1CCC2(CCN(c3ccncc3)CC2)C1 [Example H-169, 7-Chloro-2-[(1R)-4-(8-pyridin-4-yl-3,8-diazaspiro[4.5]decane-3-carbonyl)-2,3-dihydro-1H-inden-1-yl]-2,3-dihydro-isoindol-1-one]
19 | 101 | 100 | CC(C(=O)N[C@@H]1CCc2ccc(C(=O)N3CCC4(CCN(c5ccncc5)CC4)C3)cc21)c1ccccc1Cl (stereo partly drawn) [Example H-145, 2-(2-Chlorophenyl)-N-[(1R)-6-(8-pyridin-4-yl-3,8-diazaspiro[4.5]decane-3-carbonyl)-2,3-dihydro-H-inden-1-yl]-propionamide]
20 | 105 | 99 | Cc1cc2c(cc1C(=O)N1CCC3(CC1)CCN(c1ccncc1)C3)[C@H](NC(=O)c1ccccc1Cl)CC2 [Example H-59, 2-Chloro-N-[(1R)-5-methyl-6-(3-pyridin-4-yl-3,8-diazaspiro[4.5]decane-8-carbonyl)-2,3-dihydro-1H-inden-1-yl]-benzamide]
21 | 105 | 100 | O=C(N[C@@H]1CCc2ccc(C(=O)N3CCC4(CCN(c5ccncc5)CC4)C3)cc21)c1ccccc1Cl [Example H-21, 2-chloro-N-[(1R)-6-(8-pyridin-4-yl-3,8-diazaspiro[4.5]decane-3-carbonyl)-2,3-dihydro-1H-inden-1-yl]-benzamide]
22 | 101 | 100 | Cc1ccccc1S(=O)(=O)N[C@@H]1CCc2ccc(C(=O)N3CCC4(CCN(c5ccncc5)CC4)C3)cc21 [Example H-117, 2-Methyl-N-[(1R)-6-(8-pyridin-4-yl-3,8-diazaspiro[4.5]decane-3-carbonyl)-2,3-dihydro-1H-inden-1-yl]-benzensulfonic acid amide]
23 | 100 | 100 | O=C(c1ccc2c(c1)[C@H](NS(=O)(=O)c1c(Cl)cccc1Cl)CC2)N1CCC2(CCN(c3ccncc3)CC2)C1 [Example H-119, 2,6-Dichloro-N-[(1R)-6-(8-pyridin-4-yl-3,8-diazaspiro[4.5]decane-3-carbonyl)-2,3-dihydro-1H-inden-1-yl]-benzenesulfonic acid amide]
